Here are results for 17 compounds from patent publication US20240360148A1 (SUVALENT THERAPEUTICS, INC., priority 2021, published 2024).

As a reminder, the IC50 is the concentration needed to halve the response being measured.

The assay has as its target SAE1 (Homo sapiens (Human), UniProt Q9UBE0+Q9UBT2). Briefly: SAE High Throughput Biochemical Assay (HTRF), 15 min preincubation. As to conditions: read-out: 15 min preincubation HTRF IC50 (μM) Ave, SAE1 12.5 nM, ATP 100 μM. As to the method: Assay buffer was prepared [50 mM HEPES, pH 7.5, 0.1% BSA and 10 mM MgCl2] as was the Stop Buffer [100 mM HEPES, pH 7.5, 0.05% Tween20, and 410 mM KF]. The 2×Reaction Buffer [80 nM SUMO-GST, 80 nM UBC9-His, 200 μM ATP and diluted in Assay Buffer] and Antibody Reaction Mix [13.34 nM anti-GSTXL665, 1.66 nM anti-His EuK and Diluted in Stop Buffer] were also prepared. Compounds were dissolved at 200×in DMSO in a 384-well plate. Serial dilutions were performed in DMSO for each compound, and then each concentration was diluted another 50-fold in Assay Buffer, to 4× the final concentration. 2.5 μL of each concentration was transferred into its own well in a 384-well plate. SAE1 was then diluted to 4× in Assay Buffer, and 2.5 μL of 4×SAE1 was mixed into each compound-containing well. After incubating for 15 minutes at RT, 5 μL of 2×Reaction Buffer was mixed into every well. Then after another 45 minutes at RT, 10 μL of Antibody Reaction Mix was added and mixed into every well. This plate was then read on an HTRF-compatible plate reader after 2 hours at RT, and again after sitting at RT overnight. [Final Component Concentrations: SAE1: 12.5 nM; SUMO-GST: 40 nM; UBC9-His: 40 nM; Anti-GST-XL665: 6.67 nM; Anti-His-EuK: 0.83 nM; and ATP: 100 μM] Alternatively, the compounds are tested at a single concentration of 25 micromolar and the percent of control is measured.
For orientation: Time-resolved FRET reads energy transfer from a long-lived donor to a nearby acceptor.

SAE1, sequence (Q9UBE0 whole entry): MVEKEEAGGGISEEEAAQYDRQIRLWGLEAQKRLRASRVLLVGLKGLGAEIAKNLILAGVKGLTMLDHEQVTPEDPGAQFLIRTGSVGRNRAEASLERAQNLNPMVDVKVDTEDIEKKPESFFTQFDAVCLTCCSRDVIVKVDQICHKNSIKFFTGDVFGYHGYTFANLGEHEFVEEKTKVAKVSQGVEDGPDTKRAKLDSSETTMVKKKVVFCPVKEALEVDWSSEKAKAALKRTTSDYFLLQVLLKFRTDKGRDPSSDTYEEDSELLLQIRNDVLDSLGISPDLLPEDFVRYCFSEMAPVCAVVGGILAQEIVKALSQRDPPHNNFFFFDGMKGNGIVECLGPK
SAE1, sequence (Q9UBT2 whole entry): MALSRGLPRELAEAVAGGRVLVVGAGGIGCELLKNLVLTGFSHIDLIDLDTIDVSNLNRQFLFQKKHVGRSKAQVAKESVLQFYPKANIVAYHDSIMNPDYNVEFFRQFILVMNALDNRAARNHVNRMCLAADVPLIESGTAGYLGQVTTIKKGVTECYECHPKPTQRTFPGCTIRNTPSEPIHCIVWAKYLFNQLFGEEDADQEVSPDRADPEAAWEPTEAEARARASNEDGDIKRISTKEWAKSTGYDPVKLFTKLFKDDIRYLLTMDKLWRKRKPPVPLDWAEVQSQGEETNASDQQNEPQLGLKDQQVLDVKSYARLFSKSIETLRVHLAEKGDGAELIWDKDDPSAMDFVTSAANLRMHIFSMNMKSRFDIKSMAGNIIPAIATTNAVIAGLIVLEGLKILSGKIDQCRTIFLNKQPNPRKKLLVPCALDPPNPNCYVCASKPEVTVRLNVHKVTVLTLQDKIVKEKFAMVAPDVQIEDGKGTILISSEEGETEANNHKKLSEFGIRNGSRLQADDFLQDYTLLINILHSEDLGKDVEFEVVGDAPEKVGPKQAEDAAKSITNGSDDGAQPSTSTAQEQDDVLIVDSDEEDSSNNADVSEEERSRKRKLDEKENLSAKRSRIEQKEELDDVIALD

As for `CN(C)C/C=C/C(=O)N1Cc2sc(C#N)cc2[C@H](c2ccccc2-c2c[nH]nc2C(F)(F)F)C1` [Example 153, (S, E)-6-(4-(Dimethylamino)but-2-enoyl)-4-(2-(3-(trifluoromethyl)-1 H-pyrazol-4-yl)phenyl)-4,5,6,7-tetrahydrothieno[2,3-c]pyridine-2-carbonitrile], the IC50 was 9.68 µM.
Turning to `CN(C)C/C=C/C(=O)N1Cc2sc(C#N)cc2[C@H](c2ccccc2-c2cn(CCCC(=O)O)nc2C(F)(F)F)C1` [Example 174, (S, E)-4-(4-(2-(2-Cyano-6-(4-(dimethylamino)but-2-enoyl)-4,5,6,7-tetrahydrothieno[2,3-c]pyridin-4-yl)phenyl)-3-(trifluoromethyl)-1H pyrazol-1-yl)butanoic acid], the half-maximal inhibitory concentration (IC50) is 12.5 µM.
Take `CN[C@@H](C)/C=C/C(=O)N1Cc2sc(C#N)c(C)c2[C@H](c2cccc(F)c2-c2cn(C)nc2C(F)(F)F)C1` [Example 219, (S)-4-(3-fluoro-2-(1-methyl-3-(trifluoromethyl)-1 H-pyrazol-4-yl)phenyl)-3-methyl-6-((S, E)-4-(methylamino)pent-2-enoyl)-4,5,6,7-tetrahydrothieno[2,3-c]pyridine-2-carbonitrile]: the IC50 is 1.01 µM.
On to `CCn1cc(-c2c(C3CN(C(=O)/C=C/CN(C)C)Cc4sc(C#N)cc43)ccnc2F)c(C(F)(F)F)n1` (centres unmarked) [Example 202, (E)-6-(4-(Dimethylamino)but-2-enoyl)-4-(3-(1-ethyl-3-(trifluoromethyl)-1 H-pyrazol-4-yl)-2-fluoropyridin-4-yl)-4,5,6,7-tetrahydrothieno[2,3-c]pyridine-2-carbonitrile], for which the concentration for half-maximal inhibition (IC50) was 24.9 µM.
In the case of `CCn1cc(-c2ccccc2[C@@H]2CN(C(=O)/C=C/[C@H](N)CO)Cc3sc(C#N)cc32)c(C(F)(F)F)n1` [Example 73, (S)-6-((S,E)-4-Amino-5-hydroxypent-2-enoyl)-4-(2-(1-ethyl-3-(trifluoromethyl)-1H pyrazol-4-yl)phenyl)-4,5,6,7-tetrahydrothieno[2,3-c]pyridine-2-carbonitrile], the IC50 amounted to 21.9 µM.
As for `CCn1cc(-c2ccccc2[C@@H]2CN(C(=O)/C=C/CN(C)Cc3ccccc3)Cc3sc(C#N)cc32)c(C(F)(F)F)n1` [Example 33, (S, E)-6-(4-(benzyl(methyl)amino)but-2-enoyl)-4-(2-(1-ethyl-3-(trifluoromethyl)-1 H-pyrazol-4-yl)phenyl)-4,5,6,7-tetrahydrothieno[2,3-c]pyridine-2-carbonitrile], the concentration for half-maximal inhibition (IC50) is 8.44 µM.
To `CCn1cc(-c2ccccc2[C@@H]2CN(C(=O)/C=C/[C@H](COC)NC)Cc3sc(C#N)cc32)c(C(F)(F)F)n1` [Example 86, (S)-4-(2-(1-Ethyl-3-(trifluoromethyl)-1 H-pyrazol-4-yl)phenyl)-6-((R, E)-5-methoxy-4-(methylamino)pent-2-enoyl)-4,5,6,7-tetrahydrothieno[2,3-c]pyridine-2-carbonitrile] belongs 9.1 µM; to `CN(C)C/C=C/C(=O)N1Cc2sc(C#N)cc2[C@H](c2ccccc2-c2cn(CC(F)F)nc2C(F)(F)F)C1` [Example 18, (S,E)-4-(2-(1-(2,2-difluoroethyl)-3-(trifluoromethyl)-1 H-pyrazol-4-yl)phenyl)-6-(4-(dimethylamino)but-2-enoyl)-4,5,6,7-tetrahydrothieno[2,3-c]pyridine-2-carbonitrile], 8.99 µM; to `CCn1cc(-c2ccccc2[C@@H]2CN(C(=O)/C=C/C(C)NC)Cc3sc(C#N)cc32)c(C(F)(F)F)n1` (stereo partly drawn) [Example 77, (4S)-4-(2-(1-Ethyl-3-(trifluoromethyl)-1 H pyrazol-4-yl)phenyl)-6-((E)-4-(methylamino)pent-2-enoyl)-4,5,6,7-tetrahydrothieno[2,3-c]pyridine-2-carbonitrile], 9.55 µM.
With `CN(C)C/C=C/C(=O)N1Cc2sc(C#N)cc2[C@H](c2ccccc2-c2cn(CCC(=O)O)nc2C(F)(F)F)C1` [Example 173, (S, E)-3-(4-(2-(2-Cyano-6-(4-(dimethylamino)but-2-enoyl)-4,5,6,7-tetrahydrothieno[2,3-c]pyridin-4-yl)phenyl)-3-(trifluoromethyl)-1H-pyrazol-1-yl)propanoic acid], the IC50 was determined as 17.3 µM.
For the compound `CCn1cc(-c2c(C3CN(C(=O)/C=C/CN(C)C)Cc4sc(C#N)cc43)ccc(F)c2F)c(C(F)(F)F)n1` (centres unmarked) [Example 184, (E)-6-(4-(Dimethylamino)but-2-enoyl)-4-(2-(1-ethyl-3-(trifluoromethyl)-1 H-pyrazol-4-yl)-3,4-difluorophenyl)-4,5,6,7-tetrahydrothieno[2,3-c]pyridine-2-carbonitrile], the IC50 was 8.37 µM.
In the case of `CCn1cc(-c2ccccc2[C@@H]2CN(C(=O)/C=C/C(C)(C)NC)Cc3sc(C#N)cc32)c(C(F)(F)F)n1` [Example 38, (S, E)-4-(2-(1-ethyl-3-(trifluoromethyl)-1 H-pyrazol-4-yl)phenyl)-6-(4-methyl-4-(methylamino)pent-2-enoyl)-4,5,6,7-tetrahydrothieno[2,3-c]pyridine-2-carbonitrile], the IC50 was greater than 25 µM.
In the case of `CCn1cc(-c2ccccc2[C@@H]2CN(C(=O)/C=C/[C@@H](COC)NC)Cc3sc(C#N)cc32)c(C(F)(F)F)n1` [Example 85, (S)-4-(2-(1-Ethyl-3-(trifluoromethyl)-1 H-pyrazol-4-yl)phenyl)-6-((S, E)-5-methoxy-4-(methylamino)pent-2-enoyl)-4,5,6,7-tetrahydrothieno[2,3-c]pyridine-2-carbonitrile], the IC50 was greater than 25 µM.
As for `CN(C)C/C=C/C(=O)N1Cc2sc(C#N)cc2[C@H](c2ccccc2-c2cn(-c3ccncc3F)nc2C(F)(F)F)C1` [Example 157, (S,E)-6-(4-(Dimethylamino)but-2-enoyl)-4-(2-(1-(3-fluoropyridin-4-yl)-3-(trifluoromethyl)-1H pyrazol-4-yl)phenyl)-4,5,6,7-tetrahydrothieno[2,3-c]pyridine-2-carbonitrile], the IC50 came to 18.6 µM.
As to `CCOC(=O)Cn1cc(-c2ccccc2[C@@H]2CN(C(=O)/C=C/CN(C)C)Cc3sc(C#N)cc32)c(C(F)(F)F)n1` [Example 169, Ethyl (S,E)-2-(4-(2-(2-cyano-6-(4-(dimethylamino)but-2-enoyl)-4,5,6,7-tetrahydrothieno[2,3-c]pyridin-4-yl)phenyl)-3-(trifluoromethyl)-1 H-pyrazol-1-yl)acetate], the IC50 stood at 14.5 µM.
`CCn1cc(-c2cccc(O)c2C2CN(C(=O)/C=C/CN(C)C)Cc3sc(C#N)cc32)c(C(F)(F)F)n1` (centres unmarked) [Example 204, (E)-6-(4-(Dimethylamino)but-2-enoyl)-4-(2-(1-ethyl-3-(trifluoromethyl)-1 H-pyrazol-4-yl)-6-hydroxyphenyl)-4,5,6,7-tetrahydrothieno[2,3-c]pyridine-2-carbonitrile]: the IC50 is greater than 25 µM.
For the compound `CCn1cc(-c2c(F)cccc2[C@@H]2CN(C(=O)/C=C/CN[C@H]3CCOC3)Cc3sc(C#N)cc32)c(C(F)(F)F)n1` [Example 56, (S)-4-(2-(1-ethyl-3-(trifluoromethyl)-1 H-pyrazol-4-yl)-3-fluorophenyl)-6-((E)-4-(((S)-tetrahydrofuran-3-yl)amino)but-2-enoyl)-4,5,6,7-tetrahydrothieno[2,3-c]pyridine-2-carbonitrile], the 50% inhibitory concentration (IC50) came to 1.09 µM.
